Columns and labels:
[1] = molecular target: T1, SDH/Complex II, isolated rat liver mitochondria (Rattus norvegicus, UniProt P21913+Q641Z9+Q6PCT8); assay: SDH/Complex II activity, DCIP/PMS assay; format: biochemical; conditions: 100 or 300 μM α-TOS; compared to control
T1 construct: Rat liver mitochondria were prepared by differential centrifugation; from tissue; host or cells: rat liver mitochondria / sub-mitochondrial particles
Description: Preparation of sub-mitochondrial particles (SMPs) from isolated rat liver. Rat liver mitochondria were prepared by differential centrifugation according to the modified method of Rice and Lindsay, 1997. 2 ml of mitochondrial pellet were resuspended in 15 ml of 20 mM KH2 PO4 pH 7.4 and sonicated at a setting of 80 Watt for 3×15 s. The sonicated solution was then centrifuged at 6,500×g for 7 min. The supernatant fraction was kept on ice and the remaining pellet resuspended and sonicated again. The sonicated solution was centrifuged as before and the supernatant removed from the second centrifugation step combined with that from the first centrifrugation. The combined supernatant was recentrifitged at 108,000×g for 1 h. The pellet of SMPs was resuspended in 5 ml of 20 mM KH2PO4 pH 7.4 and stored frozen at −20° C. until used.
Measurement of mitochondrial complex II and complex I activity. A time course for the reduction of the complex II substrate 2,6-dichlorophenol indophenol (DCIP) by the mitochondrial preparations was followed by measuring the absorbance at 600 nm in 1 cm cuvettes containing a 1 ml reaction volume (ε600=21×10^3 M^−1cm^−1). The reaction components included NADH, 0.5 mM; succinate, 5 mM; KCN, 10 mM; DCIP, 50 μM; PMS, 50 μM. […] The change in absorbance of DCIP was measured using a spectrophotometer (UVIKON XL, Secomam) and replicate samples were assayed (n=3). […]

[2] = molecular target: T2, SDH/Complex II, Paracoccus denitrificans membranes (Paracoccus denitrificans, UniProt Q59659+Q59660+Q59662); assay: SDH/Complex II activity, DCIP/PMS assay; format: biochemical; conditions: 100 or 300 μM α-TOS; compared to control
T2 construct: Membranes were prepared from harvested cells by treating with lysozyme; endogenous in cells; host or cells: membrane vesicles of P. denitrificans CCM 982 (NCIB 8944), endogenous enzyme
Description: Preparation of membrane vesicles from Paracoccus denitrificans. P. denitrificans CCM 982 (NCIB 8944) was grown anaerobically at 30° C. in a medium containing 50 mM succinate as the carbon source and 10 mM nitrate as the terminal acceptor. Membranes were prepared from harvested cells by treating with lysozyme according to Burnell et al (1975). After dilution in 0.1 M Na phosphate, pH 7.3, to a final protein concentration of approximately 20 mg/ml, the membranes were stored at −20° C. in 1 ml aliquots until used. The protein concentration was determined using the bicinchoninic acid method and an iEMS plate reader (Labsystem, Finland).
(§1) Measurement of mitochondrial complex II and complex I activity. A time course for the reduction of the complex II substrate 2,6-dichlorophenol indophenol (DCIP) by the mitochondrial preparations was followed by measuring the absorbance at 600 nm in 1 cm cuvettes containing a 1 ml reaction volume (ε600=21×10^3 M^−1cm^−1). The reaction components included NADH, 0.5 mM; succinate, 5 mM; KCN, 10 mM; DCIP, 50 μM; PMS, 50 μM. For each assay point, 0.5 mg sample protein was used and α-TOS was added at either 100 or 300 μM as indicated. The change in absorbance of DCIP was measured using a spectrophotometer (UVIKON XL, Secomam) and replicate samples were assayed (n=3). When measuring the complex I (NADH dehydrogenase activity), PMS was omitted. […]

[3] = system: NADH dehydrogenase (complex I); assay: Complex I (NADH dehydrogenase) activity; format: biochemical; conditions: data not shown
Description: as §1
Additional support for the role of α-TOS in inhibiting mitochondrial respiratory complex II activity was sought by isolating subcellular fractions containing mitochondrial preparations from rat liver as well as membranous fractions from P. denitrificans. For these studies, the assay method of SDH/Complex II activity was based on that of King (1967) using phenazine methosulphate (PMS) and the terminal electron acceptor, 2,6-dichloroindophenol (DCIP) as the indicator dye by following the decrease in absorbance at 600 nm as it was reduced by SDH driven under conditions of high succinate. […]

[4] = system: Jurkat, HBT11, MCF7, MCF7-C3; conditions: Birringer et al, cited from earlier work

T1 sequence (P21913 31-282): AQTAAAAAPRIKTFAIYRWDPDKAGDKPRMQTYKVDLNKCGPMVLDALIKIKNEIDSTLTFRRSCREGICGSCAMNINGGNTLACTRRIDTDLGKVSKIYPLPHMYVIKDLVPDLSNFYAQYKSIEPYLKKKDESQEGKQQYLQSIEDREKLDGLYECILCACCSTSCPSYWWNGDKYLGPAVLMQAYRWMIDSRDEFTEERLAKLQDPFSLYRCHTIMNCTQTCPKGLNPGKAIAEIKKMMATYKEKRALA
T1 sequence (Q641Z9 30-169 limits assumed): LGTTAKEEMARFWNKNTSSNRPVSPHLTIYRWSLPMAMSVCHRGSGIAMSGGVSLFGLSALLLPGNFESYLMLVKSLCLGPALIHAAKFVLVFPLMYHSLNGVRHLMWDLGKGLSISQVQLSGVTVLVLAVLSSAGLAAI
T1 sequence (Q6PCT8 57-159): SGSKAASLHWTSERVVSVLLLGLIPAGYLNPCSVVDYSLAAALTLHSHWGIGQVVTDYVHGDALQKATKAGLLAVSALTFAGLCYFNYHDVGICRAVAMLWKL
T1 sequence (Q920L2 35-656 partner): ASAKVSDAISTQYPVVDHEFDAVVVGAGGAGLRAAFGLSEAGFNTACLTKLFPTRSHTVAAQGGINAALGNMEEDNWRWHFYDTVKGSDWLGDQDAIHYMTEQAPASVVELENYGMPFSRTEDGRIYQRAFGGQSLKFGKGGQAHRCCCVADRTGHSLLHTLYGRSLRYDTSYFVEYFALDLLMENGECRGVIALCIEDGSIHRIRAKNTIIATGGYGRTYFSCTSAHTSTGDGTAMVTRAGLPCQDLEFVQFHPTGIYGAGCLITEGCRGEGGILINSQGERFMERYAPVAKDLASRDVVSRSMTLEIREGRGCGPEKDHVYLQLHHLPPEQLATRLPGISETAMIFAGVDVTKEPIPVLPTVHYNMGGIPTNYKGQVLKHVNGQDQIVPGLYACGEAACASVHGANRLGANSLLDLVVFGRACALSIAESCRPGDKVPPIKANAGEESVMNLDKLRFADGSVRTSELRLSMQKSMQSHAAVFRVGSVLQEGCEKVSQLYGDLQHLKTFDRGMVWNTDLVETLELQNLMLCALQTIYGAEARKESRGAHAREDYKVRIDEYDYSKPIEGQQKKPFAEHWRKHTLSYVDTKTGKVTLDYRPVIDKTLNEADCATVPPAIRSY
T2 sequence (Q59662 whole entry): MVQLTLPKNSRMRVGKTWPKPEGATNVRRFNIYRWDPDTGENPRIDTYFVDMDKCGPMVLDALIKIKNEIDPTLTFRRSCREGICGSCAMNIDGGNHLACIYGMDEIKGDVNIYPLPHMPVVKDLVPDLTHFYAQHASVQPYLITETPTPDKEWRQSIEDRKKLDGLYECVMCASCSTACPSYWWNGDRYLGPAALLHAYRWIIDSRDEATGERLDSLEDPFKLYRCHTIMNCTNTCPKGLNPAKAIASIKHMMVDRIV
T2 sequence (Q59660 whole entry): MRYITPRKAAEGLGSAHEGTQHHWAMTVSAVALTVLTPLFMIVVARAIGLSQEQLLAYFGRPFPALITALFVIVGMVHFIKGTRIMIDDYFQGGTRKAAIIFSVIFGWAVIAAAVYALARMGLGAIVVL
T2 sequence (Q59659 whole entry): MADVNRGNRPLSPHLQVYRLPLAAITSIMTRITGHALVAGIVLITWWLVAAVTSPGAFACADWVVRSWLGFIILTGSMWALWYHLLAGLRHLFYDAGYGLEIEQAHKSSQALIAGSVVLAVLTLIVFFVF
T2 sequence (Q59661 whole entry, further chain): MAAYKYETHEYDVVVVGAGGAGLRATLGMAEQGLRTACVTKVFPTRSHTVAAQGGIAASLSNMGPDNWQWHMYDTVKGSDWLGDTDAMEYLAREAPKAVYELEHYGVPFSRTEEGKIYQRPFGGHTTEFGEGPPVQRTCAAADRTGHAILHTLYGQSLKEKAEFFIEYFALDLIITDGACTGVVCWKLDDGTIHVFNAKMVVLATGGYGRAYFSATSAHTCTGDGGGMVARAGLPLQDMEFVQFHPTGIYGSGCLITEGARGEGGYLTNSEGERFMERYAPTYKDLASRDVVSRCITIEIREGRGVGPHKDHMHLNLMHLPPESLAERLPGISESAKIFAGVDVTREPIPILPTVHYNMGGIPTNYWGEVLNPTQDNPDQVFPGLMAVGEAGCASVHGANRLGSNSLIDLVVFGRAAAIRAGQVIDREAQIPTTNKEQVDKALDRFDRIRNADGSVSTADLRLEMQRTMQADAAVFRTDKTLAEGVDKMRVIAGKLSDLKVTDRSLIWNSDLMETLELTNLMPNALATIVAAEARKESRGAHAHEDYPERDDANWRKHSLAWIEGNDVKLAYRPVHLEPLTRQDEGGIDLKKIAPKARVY

Cc1c(C)c2c(c(C)c1OC(=O)CCC(=O)O)CC[C@@](C)(CCC[C@H](C)CCC[C@H](C)CCCC(C)C)O2 [Compound 1, α-tocopheryl succinate]
rate of reduction of DCIP (SDH/Complex II activity) [1]: decreased rapidly and significantly after treatment with α-TOS | rate of reduction of DCIP (SDH/Complex II activity) [2]: decreased rapidly and significantly after treatment with α-TOS | NADH dehydrogenase (complex I) activity [3]: no effect | pro-apoptotic activity ([4]; compared with α-TOS and isomers): highest apoptogenic activity | IC50 ([4]; Jurkat, HBT11, MCF7, MCF7-C3, 2003): 43 µM

From patent US8410056B2, “Pro-oxidant anti-cancer compounds” (priority 2006, dated 2013)
